Reference: PMC6424628 (Neuropharmacology, 2019)

How the values were obtained:
[1] = biological target: dopamine transporter (hDAT) (Homo sapiens, UniProt Q01959); assay: [3H]DA uptake inhibition in COS-7 cells expressing hDAT; assay type: cell-based
[2] = biological target: norepinephrine transporter (hNET) (Homo sapiens, UniProt P23975); assay: [3H]NE uptake inhibition in COS-7 cells expressing hNET; assay type: cell-based
Sequence of norepinephrine transporter (hNET) (P23975 whole entry): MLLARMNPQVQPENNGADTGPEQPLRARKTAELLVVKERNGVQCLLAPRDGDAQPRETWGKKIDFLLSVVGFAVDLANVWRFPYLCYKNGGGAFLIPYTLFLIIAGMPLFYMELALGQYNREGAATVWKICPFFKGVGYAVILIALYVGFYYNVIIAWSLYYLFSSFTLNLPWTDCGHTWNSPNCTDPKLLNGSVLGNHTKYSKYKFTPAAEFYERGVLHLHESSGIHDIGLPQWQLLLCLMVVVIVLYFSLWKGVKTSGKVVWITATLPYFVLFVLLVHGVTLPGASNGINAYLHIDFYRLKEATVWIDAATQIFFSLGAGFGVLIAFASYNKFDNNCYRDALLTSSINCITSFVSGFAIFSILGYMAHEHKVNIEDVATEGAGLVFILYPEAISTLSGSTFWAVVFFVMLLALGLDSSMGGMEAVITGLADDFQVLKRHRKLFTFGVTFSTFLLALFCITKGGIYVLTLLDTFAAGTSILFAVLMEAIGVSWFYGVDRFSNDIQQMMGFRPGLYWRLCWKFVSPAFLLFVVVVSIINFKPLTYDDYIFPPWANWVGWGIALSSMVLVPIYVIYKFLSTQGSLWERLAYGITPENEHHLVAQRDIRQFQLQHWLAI

Sequence of dopamine transporter (hDAT) (Q01959 whole entry): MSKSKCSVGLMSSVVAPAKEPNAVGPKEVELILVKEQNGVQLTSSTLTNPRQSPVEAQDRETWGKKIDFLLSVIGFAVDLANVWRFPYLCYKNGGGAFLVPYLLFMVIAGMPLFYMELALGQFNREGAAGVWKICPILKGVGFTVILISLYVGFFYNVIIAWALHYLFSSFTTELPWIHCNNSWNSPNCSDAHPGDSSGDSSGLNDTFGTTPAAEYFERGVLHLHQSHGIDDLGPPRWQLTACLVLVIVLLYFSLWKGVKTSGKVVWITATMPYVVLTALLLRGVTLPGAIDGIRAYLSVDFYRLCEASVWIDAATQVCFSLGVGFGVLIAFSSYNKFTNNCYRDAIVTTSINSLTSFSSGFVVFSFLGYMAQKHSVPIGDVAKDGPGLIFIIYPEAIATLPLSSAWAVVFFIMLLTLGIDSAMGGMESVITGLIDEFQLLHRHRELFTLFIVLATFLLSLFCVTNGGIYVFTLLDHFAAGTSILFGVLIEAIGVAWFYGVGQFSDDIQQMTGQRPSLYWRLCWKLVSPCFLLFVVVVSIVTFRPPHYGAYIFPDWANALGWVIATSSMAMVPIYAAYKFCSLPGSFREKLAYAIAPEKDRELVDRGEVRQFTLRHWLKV

With CC(N)CCc1ccccc1Cl (centres unmarked) [SK609] the Ki [1] was 5.7 ± 1.3 µM and the Ki [2] was 0.57 ± 0.11 µM.
